SMILES | melting point
CN1CCC(C2CCN(C(=O)[C@@H](Cc3cccnc3)NC(=O)c3ccc4cc[nH]c4c3)CC2)CC1.Cl | 177 to 182 °C (dec.)
CN1CCC(C2CCN(C(=O)[C@@H](Cc3ccncc3)NC(=O)c3ccc4cc[nH]c4c3)CC2)CC1.Cl | 183 to 186 °C (dec.)
CN1CCC(C2CCN(C(=O)[C@@H](Cc3ccccn3)NC(=O)c3ccc4cc[nH]c4c3)CC2)CC1.Cl | 175 to 179 °C (dec.)
CN1CCC(C2CCN(C(=O)[C@@H](Cc3cn(C)cn3)NC(=O)c3ccc4cc[nH]c4c3)CC2)CC1.Cl | 179 to 185 °C (dec.)
CN1CCC(C2CCN(C(=O)[C@@H](CC3CCCCC3)NC(=O)c3ccc4cc[nH]c4c3)CC2)CC1.Cl | 162 to 172 °C (dec.)
CN1CCC(C2CCN(C(=O)[C@H](CC3CCOCC3)NC(=O)c3ccc4cc[nH]c4c3)CC2)CC1.Cl | 162 to 178 °C (dec.)
CN1CCC(N2CCN(C(=O)[C@@H](Cc3ccncc3)NC(=O)c3ccc4cc[nH]c4c3)CC2)CC1.Cl | 228 to 235 °C (dec.)
CN1CCC(N2CCN(C(=O)[C@@H](Cc3ccncc3)NC(=O)c3cc4ccc(Cl)cc4s3)CC2)CC1.Cl | 213 to 217 °C (dec.)
CN1CCC(N2CCN(C(=O)[C@@H](Cc3ccncc3)NC(=O)c3cc4cc(Cl)ccc4[nH]3)CC2)CC1.Cl | 238 to 242 °C (dec.)
CN1CCC(N2CCN(C(=O)[C@@H](Cc3ccccn3)NC(=O)c3cc4ccc(Cl)cc4s3)CC2)CC1.Cl | 219 to 223 °C (dec.)
CN1CCC(N2CCN(C(=O)[C@@H](Cc3ccccn3)NC(=O)c3ccc4cc[nH]c4c3)CC2)CC1.Cl | 232 to 235 °C (dec.)
CN1CCC(N2CCN(C(=O)[C@@H](Cc3ccccn3)NC(=O)c3cc4cc(Cl)ccc4[nH]3)CC2)CC1.Cl | 210 to 214 °C (dec.)
CN1CCC(N2CCN(C(=O)[C@@H](CCC(=O)O)NC(=O)c3ccc4cc[nH]c4c3)CC2)CC1.Cl | 215 to 218 °C (dec.)
CN1CCC(N2CCN(C(=O)[C@@H](CCC(=O)O)NC(=O)c3cc4ccc(Cl)cc4s3)CC2)CC1.Cl | 185 to 190 °C (dec.)
CN1CCC(N2CCN(C(=O)[C@@H](CCC(=O)O)NC(=O)c3cc4cc(Cl)ccc4[nH]3)CC2)CC1.Cl | 222 to 225 °C (dec.)
CN1CCC(C[C@@H](NC(=O)c2cc3ccc(Cl)cc3s2)C(=O)N2CCN(C3CCN(C)CC3)CC2)CC1.Cl | 220 to 223 °C (dec.)
CN1CCC(C[C@@H](NC(=O)c2ccc3cc[nH]c3c2)C(=O)N2CCN(C3CCN(C)CC3)CC2)CC1.Cl | 190 to 193 °C (dec.)
CN1CCC(C[C@@H](NC(=O)c2cc3cc(Cl)ccc3[nH]2)C(=O)N2CCN(C3CCN(C)CC3)CC2)CC1.Cl | 205 to 210 °C (dec.)
CN1CCC(N2CCN(C(=O)[C@@H](CC(N)=O)NC(=O)c3ccc4cc[nH]c4c3)CC2)CC1.Cl | 215 to 219 °C (dec.)
CN1CCC(N2CCN(C(=O)[C@@H](CC(N)=O)NC(=O)c3cc4ccc(Cl)cc4s3)CC2)CC1.Cl | 219 to 223 °C (dec.)
CN1CCC(N2CCN(C(=O)[C@@H](CC(N)=O)NC(=O)c3cc4cc(Cl)ccc4[nH]3)CC2)CC1.Cl | 235 to 240 °C (dec.)
